According to US12600732B2, “Bifunctional compounds for degrading BTK via ubiquitin proteosome pathway” (NURIX THERAPEUTICS, INC., priority 2019, dated 2026):

How the values were obtained:
BTK = molecular target: T1, BTK (Mus musculus, UniProt P35991); test: In vivo degradation of BTK in mouse PD experiments with oral dosing
T1 construct: from tissue; host or cells: mouse blood B cells / splenocytes (CD-1 or BALB/c)
Description: A method of determining the pharmacodynamic profile of BTK degraders was performed by dosing either CD-1 or BALB/c mice with CTM. The CTM was prepared in a suitable formulation and was administered via oral gavage (PO) at a suitable dose level and frequency as informed by prior pharmacokinetic and tolerability studies. Following administration of CTM, BTK levels in blood or splenocytes are measured using flow cytometry or HTRF. For assessment of BTK levels via flow cytometry, either whole blood or splenocytes were first treated with ACK RBC lysis buffer to facilitate lysing of red blood cells. Remaining cells were then stained with fluorophore-conjugated antibodies against CD45, TCR beta and CD45R (B220). Cell pellets were washed with 1×PBS, fixed, and permeabilized for twenty-four hours with Foxp3/Transcription Factor Fixation/Permeabilization Kit. Cells were then stained intracellularly with unconjugated BTK antibody and detected with a fluorophore-conjugated secondary antibody. Stained cells were run on an Attune N×T Acoustic Focusing Flow Cytometer (Thermo-Fisher A29004), and data was analyzed using FlowJo (v10.5.3) and GraphPad Prism (v7.00) software. Lymphocytes were gated for B cells defined as CD45+ TCR beta−B220+ and T cells as CD45+ TCR beta+B220−. The BTK geometric mean fluorescence intensity (MFI) was calculated for B and T cells. Percent BTK degradation for each compound-treated sample was calculated using the equation described below: % Degradation=100*(Treated sample B cell BTK MFI-treated sample T cell BTK MFI)/Vehicle B cell BTK MFI-Vehicle T cell BTK MFI)
This example evaluates in vivo activity of BTK CTMs via a direct mouse PD measurement following oral dosing
Screens were completed at 90 mg/kg for six hours, and then changed to lower doses/longer time points after seeing strong BTK degradation activity with an initial set of compounds. This assay was useful in selecting compounds for in vivo efficacy experiments.

TMD8 cells = test: Cell viability assay (CellTiter-Glo), TMD8 cells; settings: for EC50: Homo sapiens, TMD8, 72 h; for EMAX (% viable cells): TMD8 cells, treatment time 72 h
Description: (§1) Cell viability was determined using CellTiter-Glo 2.0 Luminescent Cell Viability Assay (Promega, G9242), which quantitates the amount of ATP present as a proxy for the number of viable cells in culture. Cells were plated with densities between 2000-4000 cells per well in 96-well plates. […] CellTiter-Glo reagent was added to cells at a dilution of 1:20, and the plate was incubated ten minutes at room temperature prior to reading the luminescence signal using an EnVision plate reader. Controls included cells treated with DMSO and wells that contained no cells, only media. Background luminescence signal was determined by control wells containing no cells, only media, and was then subtracted from all sample wells. Luminescence values were then normalized to DMSO-treated wells and reported at proportion viable cells.
Here, the ability of CTMs to affect viability in BTK-dependent cell lines was assessed.

TMD8 C481S cells = test: Cell viability assay (CellTiter-Glo), TMD8 C481S cells; settings: for EC50: Homo sapiens, TMD8, 72 h; for EMAX (% viable cells): TMD8 C481S cells, treatment time 72 h
Description: as §1

[1] = oral dose 90 mg/kg, 6 h, splenocytes, HTRF
[2] = oral dose 3 mg/kg, 6 h, blood, flow cytometry
[3] = oral dose 30 mg/kg, 24 h, blood, flow cytometry
[4] = oral dose 30 mg/kg, 24 h, splenocytes, HTRF

T1 sequence (P35991 whole entry): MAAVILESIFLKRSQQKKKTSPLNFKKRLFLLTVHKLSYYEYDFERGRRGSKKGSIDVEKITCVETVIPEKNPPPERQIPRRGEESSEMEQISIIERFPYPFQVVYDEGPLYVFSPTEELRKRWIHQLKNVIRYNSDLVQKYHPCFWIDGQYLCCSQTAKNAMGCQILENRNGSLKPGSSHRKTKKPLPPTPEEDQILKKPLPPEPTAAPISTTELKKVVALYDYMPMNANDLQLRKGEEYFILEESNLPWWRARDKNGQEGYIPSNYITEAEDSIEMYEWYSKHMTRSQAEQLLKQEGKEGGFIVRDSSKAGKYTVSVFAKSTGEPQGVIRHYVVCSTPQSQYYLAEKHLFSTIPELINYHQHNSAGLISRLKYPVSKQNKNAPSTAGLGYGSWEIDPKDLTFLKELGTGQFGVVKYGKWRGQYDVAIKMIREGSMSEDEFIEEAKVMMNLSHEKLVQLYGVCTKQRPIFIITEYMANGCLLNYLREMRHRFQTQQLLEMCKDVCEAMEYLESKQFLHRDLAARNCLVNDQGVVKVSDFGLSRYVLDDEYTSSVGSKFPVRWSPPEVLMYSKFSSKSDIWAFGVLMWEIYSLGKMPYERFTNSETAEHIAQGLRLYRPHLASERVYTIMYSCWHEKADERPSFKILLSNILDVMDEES

Compound	% BTK Remaining (BTK; [1]) [%]	EC50 (TMD8 cells) [nM]	EMAX (% viable cells) (TMD8 cells) [%]	EC50 (TMD8 C481S cells) [nM]	EMAX (% viable cells) (TMD8 C481S cells) [%]	also measured
CN1CCN([C@@H]2CCCN(c3cnc(C(N)=O)c(Nc4ccc(N5CCN(C[C@H]6CCN(c7ccc8c(c7)C(=O)N(C7CCC(=O)NC7=O)C8=O)C6)CC5)cc4)n3)C2)C1=O (some centres unmarked) [Compound 42]	5	0.217	40	1.96	57	
CN1CCN([C@@H]2CCCN(c3cnc(C(N)=O)c(Nc4ccc(C5CCN(c6ccc7c(c6)C(=O)N(C6CCC(=O)NC6=O)C7=O)CC5)cc4)n3)C2)C1=O (some centres unmarked) [Compound 47]	80	3.83	39	43.5	61	
CN1CCN([C@@H]2CCCN(c3cnc(C(N)=O)c(Nc4ccc(N5CCN(CC6CCN(c7ccc8c(c7)C(=O)N(C7CCC(=O)NC7=O)C8=O)CC6)CC5)cc4)n3)C2)C1=O (some centres unmarked) [Compound 49]	<1	0.61	28	3.86	23	
CN1CCN([C@@H]2CCCN(c3cnc(C(N)=O)c(Nc4ccc(C5CCN(CC6CN(c7ccc8c(c7)C(=O)N(C7CCC(=O)NC7=O)C8=O)C6)CC5)cc4)n3)C2)C1=O (some centres unmarked) [Compound 54]	1	0.61	13	7.11	6	
CN1CCN([C@@H]2CCCN(c3cnc(C(N)=O)c(Nc4ccc(N5CCN(C[C@@H]6CCN(c7ccc8c(c7)C(=O)N(C7CCC(=O)NC7=O)C8=O)C6)CC5)cc4)n3)C2)C1=O (some centres unmarked) [Compound 59]	7	0.15	31	2.03	52	
CN1CCN([C@@H]2CCCN(c3cnc(C(N)=O)c(Nc4ccc(N5CCN(CC6CN(c7ccc8c(c7)C(=O)N(C7CCC(=O)NC7=O)C8=O)C6)CC5)cc4)n3)C2)C1=O (some centres unmarked) [Compound 60]	3	0.97	20	8.37	26	
CN1CCN([C@H]2CCCN(c3cnc(C(N)=O)c(Nc4ccc(N5CCC6(CCN(c7ccc8c(c7)C(=O)N(C7CCC(=O)NC7=O)C8=O)CC6)CC5)nc4)n3)C2)C1=O (some centres unmarked) [Compound 80]		45.2	45	125	78	% BTK Remaining (BTK; oral dose 0.3 mg/kg, 24 h, blood, flow cytometry): 88%; % BTK Remaining (BTK; oral dose 0.3 mg/kg, 24 h, splenocytes, flow cytometry): 115%; % BTK Remaining (BTK; [2]): 96%; % BTK Remaining (BTK; oral dose 3 mg/kg, 24 h, blood, flow cytometry): 77%; % BTK Remaining (BTK; oral dose 3 mg/kg, 24 h, splenocytes, flow cytometry): 111%; % BTK Remaining (BTK; oral dose 10 mg/kg, 24 h, blood, flow cytometry): 59%; % BTK Remaining (BTK; oral dose 10 mg/kg, 24 h, splenocytes, flow cytometry): 74%; % BTK Remaining (BTK; [3]): 52%; % BTK Remaining (BTK; oral dose 30 mg/kg, 24 h, splenocytes, flow cytometry): 69%; % BTK Remaining (BTK; oral dose 90 mg/kg, 24 h, blood, flow cytometry): 48%; % BTK Remaining (BTK; oral dose 90 mg/kg, 24 h, splenocytes, flow cytometry): 65%
CN1CCN([C@@H]2CCCN(c3cnc(C(N)=O)c(Nc4ccc(C5CCN(C[C@H]6CCN(c7ccc8c(=O)n(C9CCC(=O)NC9=O)ccc8c7)C6)CC5)cc4)n3)C2)C1=O (some centres unmarked) [Compound 115]		2.74	13	1.93	16	% BTK Remaining (BTK; [3]): 30%
CN1CCN([C@@H]2CCCN(c3cnc(C(N)=O)c(Nc4ccc(C5CCN(C[C@@H]6CCN(c7ccc8c(c7)n(C)c(=O)n8[C@@H]7CCC(=O)NC7=O)C6)CC5)cc4)n3)C2)C1=O [Compound 199]						% BTK Remaining (BTK; [3]): 20%
CN1CCN([C@@H]2CCCN(c3cnc(C(N)=O)c(Nc4ccc(C5CCN(C[C@H]6C[C@H](Nc7cccc8c7C(=O)N([C@@H]7CCC(=O)NC7=O)C8=O)C6)CC5)cc4)n3)C2)C1=O [Compound 202]						% BTK Remaining (BTK; [3]): 79%
O=C1CC[C@H](N2C(=O)c3ccc(N4CC[C@H](CN5CCC(c6ccc(Nc7nc(-c8nccs8)cn8ccnc78)cc6)CC5)C4)cc3C2=O)C(=O)N1 [Compound 203]						% BTK Remaining (BTK; [3]): 95%
CN1CCN([C@@H]2CCCN(c3cnc(C(N)=O)c(Nc4cnc(N5CCN(C[C@H]6CCN(c7ccc8c(c7)C(=O)N([C@@H]7CCC(=O)NC7=O)C8=O)C6)CC5)nc4)n3)C2)C1=O [Compound 204]						% BTK Remaining (BTK; [4]): 87%
CN1CCN([C@@H]2CCCN(c3cnc(C(N)=O)c(Nc4ccc(C5CCN(C[C@H]6CCN(c7ccc8c(c7)C(=O)N([C@@H]7CCC(=O)NC7=O)C8=O)C6)CC5)nc4)n3)C2)C1=O [Compound 207]				0.009	54	% BTK Remaining (BTK; [4]): 46%
CN1CCN([C@@H]2CCCN(c3cnc(C(N)=O)c(Nc4cnn(C5CN(CC6CCN(c7ccc8c(c7)C(=O)N([C@@H]7CCC(=O)NC7=O)C8=O)CC6)C5)c4)n3)C2)C1=O [Compound 209]		7.41	49	55.2	44	
CN1CCN([C@@H]2CCCN(c3cnc(C(N)=O)c(Nc4ccc(N5CCC6(CCN(Cc7ccc8c(c7)CN([C@@H]7CCC(=O)NC7=O)C8=O)CC6)CC5)cc4)n3)C2)C1=O [Compound 210]		5.61	32	5.29	40	
Cn1cc(Nc2nc(N3CCC[C@@H](N4CC5(CN(C6CCN(c7ccc8c(c7)C(=O)N([C@H]7CCC(=O)NC7=O)C8=O)CC6)C5)OC4=O)C3)cnc2C(N)=O)cn1 [Compound 212]		15.1	42	63	44	% BTK Remaining (BTK; [2]): 78%
CN1CCN([C@@H]2CCCN(c3cnc(C(N)=O)c(Nc4cc5n(n4)CCN(C[C@H]4CCN(c6ccc7c(c6)C(=O)N(C6CCC(=O)NC6=O)C7=O)C4)C5)c3)C2)C1=O (some centres unmarked) [Compound 214]						% BTK Remaining (BTK; [2]): 100%
CS(=O)(=O)c1ccc(Nc2nc(N3CCC[C@@H](NC(=O)OCC4CCN(c5ccc6c(c5)C(=O)N([C@H]5CCC(=O)NC5=O)C6=O)CC4)C3)cnc2C(N)=O)cc1 [Compound 218]						% BTK Remaining (BTK; oral dose 1 mg/kg, 6 h, splenocytes, HTRF): 97%
Cc1cc(Nc2nc(N3CCC[C@@H](N4CCC5(CCN(CC6CCN(c7ccc8c(c7)C(=O)N(C7CCC(=O)NC7=O)C8=O)CC6)CC5)C4=O)C3)cnc2C(N)=O)sn1 (stereo partly drawn) [compound 205, 5-[(3R)-3-[8-({1-[2-(2,6-dioxopiperidin-3-yl)-1,3-dioxoisoindol-5-yl]piperidin-4-yl}methyl)-1-oxo-2,8-diazaspiro[4.5]decan-2-yl]piperidin-1-yl]-3-[(3-methyl-1,2-thiazol-5-yl)amino]pyrazine-2-carboxamide]						% BTK Remaining (BTK; [4]): 66%
Cn1cc(Nc2nc(N3CCC[C@@H](N4CC5(CN(CC6CN(c7ccc8c(c7)C(=O)N(C7CCC(=O)NC7=O)C8=O)C6)C5)OC4=O)C3)cnc2C(N)=O)cn1 (stereo partly drawn) [compound 213, 5-((3R)-3-(2-((1-(2-(2,6-dioxopiperidin-3-yl)-1,3-dioxoisoindolin-5-yl)azetidin-3-yl)methyl)-6-oxo-5-oxa-2,7-diazaspiro[3.4]octan-7-yl)piperidin-1-yl)-3-((1-methyl-1H-pyrazol-4-yl)amino)pyrazine-2-carboxamide]						% BTK Remaining (BTK; [2]): 97%
